Usually IC50 stands for the midpoint of a concentration-inhibition curve. By inhibition is commonly meant the relative decrease from the control value, in per cent. Usually half-life stands for the time in which the quantity being followed falls by half. A low value points to rapid decline.

Each structure is given as a SMILES string. Where only a bound is given, the exact number is not on record here.

IC50, inhibition and half-life data for 22 compounds are collected here from patent US20250163032A1, “NOVEL MOLECULES AS INHIBITORS OF DNA DAMAGE REPAIR PATHWAY” (VRise Therapeutics, Inc., priority 2023, published 2025).

Chain of USP1/UAF1 (O94782 whole entry): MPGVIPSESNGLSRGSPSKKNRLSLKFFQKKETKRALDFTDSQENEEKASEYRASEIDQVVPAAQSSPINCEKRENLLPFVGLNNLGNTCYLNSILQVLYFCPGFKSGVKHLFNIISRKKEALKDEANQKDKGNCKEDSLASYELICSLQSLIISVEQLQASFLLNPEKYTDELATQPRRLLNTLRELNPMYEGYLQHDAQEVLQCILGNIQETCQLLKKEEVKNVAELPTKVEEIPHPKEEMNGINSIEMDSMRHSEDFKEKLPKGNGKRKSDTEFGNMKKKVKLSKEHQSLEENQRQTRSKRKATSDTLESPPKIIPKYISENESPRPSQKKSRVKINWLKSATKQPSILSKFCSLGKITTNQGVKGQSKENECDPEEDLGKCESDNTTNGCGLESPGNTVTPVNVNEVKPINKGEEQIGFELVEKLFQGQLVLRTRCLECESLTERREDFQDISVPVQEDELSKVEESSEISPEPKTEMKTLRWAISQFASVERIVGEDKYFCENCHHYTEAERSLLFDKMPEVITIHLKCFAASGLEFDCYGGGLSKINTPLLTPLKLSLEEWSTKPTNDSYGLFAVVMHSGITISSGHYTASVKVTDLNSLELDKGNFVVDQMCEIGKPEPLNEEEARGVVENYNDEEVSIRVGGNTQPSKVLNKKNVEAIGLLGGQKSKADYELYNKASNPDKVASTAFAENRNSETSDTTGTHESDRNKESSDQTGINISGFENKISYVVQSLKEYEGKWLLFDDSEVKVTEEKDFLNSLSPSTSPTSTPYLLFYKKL
Chain of USP1/UAF1 (Q8TAF3 whole entry partner): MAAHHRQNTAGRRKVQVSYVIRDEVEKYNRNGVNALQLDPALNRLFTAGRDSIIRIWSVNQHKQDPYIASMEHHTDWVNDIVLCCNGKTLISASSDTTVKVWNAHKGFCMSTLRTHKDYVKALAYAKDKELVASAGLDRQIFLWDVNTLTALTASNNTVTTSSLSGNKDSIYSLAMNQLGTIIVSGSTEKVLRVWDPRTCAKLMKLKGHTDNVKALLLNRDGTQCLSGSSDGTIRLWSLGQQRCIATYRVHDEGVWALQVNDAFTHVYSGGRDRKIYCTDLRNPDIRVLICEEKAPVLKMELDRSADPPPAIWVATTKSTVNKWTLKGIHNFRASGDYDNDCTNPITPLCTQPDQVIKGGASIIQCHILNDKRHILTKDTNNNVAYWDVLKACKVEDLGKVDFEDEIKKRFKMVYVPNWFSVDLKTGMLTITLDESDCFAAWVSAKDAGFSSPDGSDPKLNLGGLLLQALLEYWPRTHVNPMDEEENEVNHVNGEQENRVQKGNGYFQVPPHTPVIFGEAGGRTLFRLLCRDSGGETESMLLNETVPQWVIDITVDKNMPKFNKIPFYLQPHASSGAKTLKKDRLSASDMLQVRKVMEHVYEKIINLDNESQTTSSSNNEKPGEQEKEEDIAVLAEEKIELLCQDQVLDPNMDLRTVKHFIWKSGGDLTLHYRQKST

The test system of one data set is MD-MBA-436. The experiment in a line: Cell viability assay (CTG assay). The class given is cell-based, human. The following applies: Homo sapiens, 7th day. On the procedure: Test 5: Cell Viability Assay (CTG Assay):
Growth inhibition assays was carried out using […] supplemented media. Cells were seeded at a desired concentration of 1000-6,000 cells/well in a well plate with desired number of wells. Test compounds at a desired concentration range were added after 24 hours. Growth was assessed using the Cell Titer-Glo (CTG, Cell Signaling) for measuring reduction at 7th day after the addition of test compound chemiluminescence values were read by a plate reader. Data was be analysed and percent inhibition and/or IC50 for each test compound is calculated accordingly.
Take `CC(C)c1ccccc1-c1nc(NCc2ccc(-c3nc(C(F)(F)F)cn3C)cc2)c2cccn2n1` [Example 5, 2-(2-isopropylphenyl)-N-(4-(1-methyl-4-(trifluoromethyl)-1H-imidazol-2-yl)benzyl)pyrrolo[2,1-f][1,2,4]triazin-4-amine]: the half-inhibitory concentration (IC50) was ≥ 1000 nM.

Turning to `COc1ncnc(C2CC2)c1-c1nc(NCc2ccc(-c3nc(C(F)(F)F)cn3C(C)C)cc2)c2cccn2n1` [Example 22, 2-(4-cyclopropyl-6-methoxypyrimidin-5-yl)-N-(4-(1-isopropyl-4-(trifluoromethyl)-1H-imidazol-2-yl)benzyl)pyrrolo[2,1-f][1,2,4]triazin-4-amine], the IC50 lay in the range of 50 to 100 nM.

Staying with this data set, now noted: Homo sapiens, 7th day, @10 μM.
The compound `COc1ncnc(C2CC2)c1-c1nc(NCc2ccc(-c3nc(C(F)(F)F)cn3C)cc2)c2ncn(C3CCCCO3)c2n1` (centres unmarked) [Example 19, 2-(4-cyclopropyl-6-methoxypyrimidin-5-yl)-N-(4-(1-methyl-4-(trifluoromethyl)-1H-imidazol-2-yl)benzyl)-9-(tetrahydro-2H-pyran-2-yl)-9H-purin-6-amine] yielded an inhibition at 10 µM of 75 to 100%.

The target in a further data set is USP1/UAF1 (Homo sapiens, UniProt O94782). The data set can be described thus: USP1/UAF 1 assay (ubiquitin-rhodamine110 fluorometric deubiquitinase assay). Type of data set: biochemical. The following applies: 1 nM USP1/UAF1, 150 nM Ub-Rho; read-out: Biochemical assay IC50. As for the experimental part:
Test-1: USP1/UAF 1 Assay:
Deubiquitinase activity of USP1/UAF1 was monitored in a fluorometric assay using ubiquitin-rhodamine110 as substrate. Briefly, enzymatic reactions were conducted in an assay buffer composed of 50 mM HEPES, pH 7.8, 0.5 mM EDTA, 100 mM NaCl, 1 mM TCEP, 0.1 mg/mL BSA, and 0.01% Tween-20 that contained 1 nM USP1/UAF1. Compounds were tested at desired concentrations. The plates were incubated for 15 min to attain equilibrium, and then the enzymatic reaction was initiated by dispensing 150 nM Ub-Rho solution. Fluorescence measurement was performed in a high throughput CCD imager, where kinetic measurements of rhodamine fluorescence were acquired using a 480 nm excitation/540 nm emission filter set. The change in fluorescence intensity over a 5-minute reaction period (typically associated with less than 10% substrate conversion) was normalized against no-inhibitor and no-enzyme controls and the resulting percent inhibition data were fitted to a sigmoidal dose response using a four-parameter Hill equation. Data was be analysed and percent inhibition and/or IC50 for each test compound is calculated accordingly.
For the compound `CC(C)c1ccccc1-c1nc(NCc2ccc(-c3nc(C(F)(F)F)cn3C)cc2)c2cccn2n1` [Example 5, 2-(2-isopropylphenyl)-N-(4-(1-methyl-4-(trifluoromethyl)-1H-imidazol-2-yl)benzyl)pyrrolo[2,1-f][1,2,4]triazin-4-amine], the IC50 was < 50 nM.

With `COc1ncnc(C2CC2)c1-c1nc(NCc2ccc(-c3nc(C(F)(F)F)cn3C(C)C)cc2)c2cccn2n1` [Example 22, 2-(4-cyclopropyl-6-methoxypyrimidin-5-yl)-N-(4-(1-isopropyl-4-(trifluoromethyl)-1H-imidazol-2-yl)benzyl)pyrrolo[2,1-f][1,2,4]triazin-4-amine], the IC50 was < 50 nM.

Staying with this data set, now noted: read-out: Biochemical assay % inhibition @1 μM.
For the compound `CC(C)c1ccccc1-c1nc2c(c(OCc3ccc(-c4nc(C(F)(F)F)cn4C(C)C)cc3)n1)CCC2` [Example 13, 4-((4-(1-isopropyl-4-(trifluoromethyl)-1H-imidazol-2-yl)benzyl)oxy)-2-(2-isopropylphenyl)-6,7-dihydro-5H-cyclopenta[d]pyrimidine], the inhibition at 1 µM was in the range of 25 to 50%.

Consider `COc1ncnc(C2CC2)c1-c1nc(NCc2ccc(-c3nc(C(F)(F)F)cn3C)cc2)c2ncn(C3CCCCO3)c2n1` (centres unmarked) [Example 19, 2-(4-cyclopropyl-6-methoxypyrimidin-5-yl)-N-(4-(1-methyl-4-(trifluoromethyl)-1H-imidazol-2-yl)benzyl)-9-(tetrahydro-2H-pyran-2-yl)-9H-purin-6-amine], for which the inhibition at 1 µM was in the range of 50 to 75%.

As for `Cn1cc(C(F)(F)F)nc1-c1ccc(CNc2nc(-c3cccc(C(F)(F)F)c3)nc3nc[nH]c23)cc1` [Example 58, N-(4-(1-methyl-4-(trifluoromethyl)-1H-imidazol-2-yl)benzyl)-2-(3-(trifluoromethyl)phenyl)-7H-purin-6-amine], the inhibition at 1 µM was 50 to 75%.

Consider `CC(=O)Nc1cccc(-c2nc3c(c(NCc4ccc(-c5nc(C(F)(F)F)cn5C)cc4)n2)CCC3)c1` [Example 59, N-(3-(4-((4-(1-methyl-4-(trifluoromethyl)-1H-imidazol-2-yl)benzyl)amino)-6,7-dihydro-5H-cyclopenta[d]pyrimidin-2-yl)phenyl)acetamide], for which the inhibition at 1 µM was in the range of 50 to 75%.

`Cn1cc(C(F)(F)F)nc1-c1ccc(CNc2nc(-c3ccc(F)c(C#N)c3)nc3c2CCC3)cc1` [Example 60, 2-fluoro-5-(4-((4-(1-methyl-4-(trifluoromethyl)-1H-imidazol-2-yl)benzyl)amino)-6,7-dihydro-5H-cyclopenta[d]pyrimidin-2-yl)benzonitrile]: the inhibition at 1 µM fell in the range of 50 to 75%.

With `Cn1cc(C(F)(F)F)nc1-c1ccc(CNc2nc(-c3cc(Cl)ccc3F)nc3c2CCC3)cc1` [Example 61, 2-(5-chloro-2-fluorophenyl)-N-(4-(1-methyl-4-(trifluoromethyl)-1H-imidazol-2-yl)benzyl)-6,7-dihydro-5H-cyclopenta[d]pyrimidin-4-amine], the inhibition at 1 µM lay in the range of 50 to 75%.

As for `CCOc1ccc(-c2nc3c(c(NCc4ccc(-c5nc(C(F)(F)F)cn5C)cc4)n2)CCC3)cn1` [Example 62, 2-(6-ethoxypyridin-3-yl)-N-(4-(1-methyl-4-(trifluoromethyl)-1H-imidazol-2-yl)benzyl)-6,7-dihydro-5H-cyclopenta[d]pyrimidin-4-amine], the inhibition at 1 µM lay within 50 to 75%.

Consider `Cn1cc(C(F)(F)F)nc1-c1ccc(CNc2nc(-c3ccc(C#N)cc3)nc3c2CCC3)cc1` [Example 63, 4-(4-((4-(1-methyl-4-(trifluoromethyl)-1H-imidazol-2-yl)benzyl)amino)-6,7-dihydro-5H-cyclopenta[d]pyrimidin-2-yl)benzonitrile], for which the inhibition at 1 µM fell in the range of 50 to 75%.

For `Cn1cc(C(F)(F)F)nc1-c1ccc(CNc2nc(-c3ccc(-c4ccccc4)cc3)nc3c2CCC3)cc1` [Example 64, 2-([1,1′-biphenyl]-4-yl)-N-(4-(1-methyl-4-(trifluoromethyl)-1H-imidazol-2-yl)benzyl)-6,7-dihydro-5H-cyclopenta[d]pyrimidin-4-amine], the inhibition at 1 µM fell in the range of 25 to 50%.

As for `COc1ccc(-c2nc3c(c(NCc4ccc(-c5nc(C(F)(F)F)cn5C)cc4)n2)CCC3)c(OC)n1` [Example 65, 2-(2,6-dimethoxypyridin-3-yl)-N-(4-(1-methyl-4-(trifluoromethyl)-1H-imidazol-2-yl)benzyl)-6,7-dihydro-5H-cyclopenta[d]pyrimidin-4-amine], the inhibition at 1 µM was 50 to 75%.

Take `COc1ccc(OC)c(-c2nc3c(c(NCc4ccc(-c5nc(C(F)(F)F)cn5C)cc4)n2)CCC3)c1` [Example 66, 2-(2,5-dimethoxyphenyl)-N-(4-(1-methyl-4-(trifluoromethyl)-1H-imidazol-2-yl)benzyl)-6,7-dihydro-5H-cyclopenta[d]pyrimidin-4-amine]: the inhibition at 1 µM is 50 to 75%.

On to `Cn1cc(C(F)(F)F)nc1-c1ccc(CNc2nc(-c3cccc(Cl)c3F)nc3c2CCC3)cc1` [Example 67, 2-(3-chloro-2-fluorophenyl)-N-(4-(1-methyl-4-(trifluoromethyl)-1H-imidazol-2-yl)benzyl)-6,7-dihydro-5H-cyclopenta[d]pyrimidin-4-amine], for which the inhibition at 1 µM is 50 to 75%.

Consider `COc1ccc(-c2nc3c(c(NCc4ccc(-c5nc(C(F)(F)F)cn5C)cc4)n2)CCC3)c(OC)c1` [Example 68, 2-(2,4-dimethoxyphenyl)-N-(4-(1-methyl-4-(trifluoromethyl)-1H-imidazol-2-yl)benzyl)-6,7-dihydro-5H-cyclopenta[d]pyrimidin-4-amine], for which the inhibition at 1 µM is 50 to 75%.

Regarding `COc1ccc(-c2nc3c(c(NCc4ccc(-c5nc(C(F)(F)F)cn5C)cc4)n2)CCC3)cc1OC` [Example 69, 2-(3,4-dimethoxyphenyl)-N-(4-(1-methyl-4-(trifluoromethyl)-1H-imidazol-2-yl)benzyl)-6,7-dihydro-5H-cyclopenta[d]pyrimidin-4-amine], the inhibition at 1 µM lay within 50 to 75%.

Regarding `Cn1cc(C(F)(F)F)nc1-c1ccc(CNc2nc(-c3ccccc3C(F)(F)F)nc3c2CCC3)cc1` [Example 70, N-(4-(1-methyl-4-(trifluoromethyl)-1H-imidazol-2-yl)benzyl)-2-(2-(trifluoromethyl)phenyl)-6,7-dihydro-5H-cyclopenta[d]pyrimidin-4-amine], the inhibition at 1 µM was > 75%.

Turning to `Cn1cc(C(F)(F)F)nc1-c1ccc(CNc2nc(-c3ccc(C(F)(F)F)cc3)nc3c2CCC3)cc1` [Example 71, N-(4-(1-methyl-4-(trifluoromethyl)-1H-imidazol-2-yl)benzyl)-2-(4-(trifluoromethyl)phenyl)-6,7-dihydro-5H-cyclopenta[d]pyrimidin-4-amine], the inhibition at 1 µM was 50 to 75%.

Consider `Cn1cc(C(F)(F)F)nc1-c1ccc(CNc2nc(-c3cccc(C(N)=O)c3)nc3c2CCC3)cc1` [Example 72, 3-(4-((4-(1-methyl-4-(trifluoromethyl)-1H-imidazol-2-yl)benzyl)amino)-6,7-dihydro-5H-cyclopenta[d]pyrimidin-2-yl)benzamide], for which the inhibition at 1 µM was 50 to 75%.

Take `Cn1cc(C(F)(F)F)nc1-c1ccc(CNc2nc(-c3cc(Cl)cc(Cl)c3)nc3c2CCC3)cc1` [Example 73, 2-(3,5-dichlorophenyl)-N-(4-(1-methyl-4-(trifluoromethyl)-1H-imidazol-2-yl)benzyl)-6,7-dihydro-5H-cyclopenta[d]pyrimidin-4-amine]: the inhibition at 1 µM is 50 to 75%.

For `Cn1cc(C(F)(F)F)nc1-c1ccc(CNc2nc(-c3cc(F)cc(F)c3F)nc3c2CCC3)cc1` [Example 74, N-(4-(1-methyl-4-(trifluoromethyl)-1H-imidazol-2-yl)benzyl)-2-(2,3,5-trifluorophenyl)-6,7-dihydro-5H-cyclopenta[d]pyrimidin-4-amine], the inhibition at 1 µM was in the range of 50 to 75%.

System in the next data set: not listed separately
The experiment in a line: Metabolic stability, mouse liver microsomes. Type of data set: in vitro ADME. The settings on record: pH 7.4, 1 μM test item, 1 mM NADPH, 60 minutes. On the procedure: Test-8: Metabolic Stability
Metabolic stability studies were conducted using mouse, rat, and human liver microsomes. The protocol for the studies with mouse and human liver microsomes (Gibco-Thermo) is provided below.
In brief, 0.25 mg protein was preincubated in phosphate buffer (pH˜7.4) for 5 min at 37° C. and then added with 1 μM test item followed by addition of 1 mM NADPH (cof actor) and incubated further over a period 60 minutes in duplicate. The reaction mixture was terminated with acetonitrile containing an internal standard and centrifuged further to analyse the test item remaining in the supernatant by LC-MS/MS at different intervals. The percent parent compound remaining was calculated in comparison with similar samples terminated at 0 minutes.
Regarding `CC(C)c1ccccc1-c1nc2c(c(OCc3ccc(-c4nc(C(F)(F)F)cn4C(C)C)cc3)n1)CCC2` [Example 13, 4-((4-(1-isopropyl-4-(trifluoromethyl)-1H-imidazol-2-yl)benzyl)oxy)-2-(2-isopropylphenyl)-6,7-dihydro-5H-cyclopenta[d]pyrimidine], the half-life at 1 μM was found to be 0.163 h.

Regarding `COc1cccc(F)c1-c1nc(OCc2ccc(-c3nc(C(F)(F)F)cn3C)cc2)c2ncn(C3CCCCO3)c2n1` (centres unmarked) [Example 27, 2-(2-fluoro-6-methoxyphenyl)-6-((4-(1-methyl-4-(trifluoromethyl)-1H-imidazol-2-yl)benzyl)oxy)-9-(tetrahydro-2H-pyran-2-yl)-9H-purine], the half-life at 1 μM amounted to 2.03 h.
